{"source": "patent US12673039B2", "about": "“Methods of inducing autophagy using coumarin derivatives and related compounds” (Buck Institute for Research on Aging, priority 2019, dated 2026)", "test_system": "human TFEB promoter", "experiment": "TFEB promoter secreted-luciferase assay in rat N27 neuronal cells", "format": "cell-based", "details": "24 hour treatment, versus DMSO-control (FIG. 18, panel A)", "experimental": "FIG. 18, panels A-F: AIC106 (Autophagy Inducing Coumarin-106) induces transcription of TFEB and its targets in vitro in rat N27 neuronal cells and in vivo in C. elegans. Panel A) Relative fold change in TFEB promoter activity compared to DMSO-control was determined by quantifying luciferase activity in supernatants collected from rat N27 neuronal cells post-24 hour treatment with C1 (AIC106), D1 and D2. [n=3 independent experiments (mean±SEM), **p<0.01, by one-way ANOVA with Dunnett's multiple comparisons test]. Panel B) Chemical structure of AIC106 and its structural derivative D1 and D2. Panel C) Relative fold change in mRNA of tfeb and its targets compared to DMSO-control were quantified using qRT-PCR in N27 neuronal cells post-24 hour treatment with AIC106 [N=3 independent experiments (mean±SD). *p<0.05, **p<0.01 and ****p<0.0001, by two-way ANOVA with Sidak's multiple comparisons test]. Panel D) Changes in HLH-30 expression were measured by quantifying GFP intensity in an individual GFP-tagged HLH-30 strain (MAH235) post-24 hours treatment with AIC106 and DMSO-control. […] Panel E) HLH-30; GFP (MAH235) were monitored by fluorescence microscopy. Panel F) Relative fold change in mRNA of hlh-30 and its targets compared to DMSO-control were quantified using qRT-PCR in young adult wild type N2 worms post-24 hours treatment with AIC106. […]", "data": [{"smiles": "O=c1oc2c3c4c(cc2c2c1CCC2)CCCN4CCC3", "note": "[C1, 2,3,6,7,10,11-Hexahydro-1H,5H-cyclopenta(3,4)(1)benzopyrano(6,7,8-ij)quinolizin-12(9H)-one]", "values": [{"measurement": "luciferase transcription (TFEB promoter activity)", "value": "6-7 fold"}]}]}
